AC50 data for 18 compounds are collected here from ChEMBL document CHEMBL5291721, “A preclinical secondary pharmacology resource illuminates target-adverse drug reaction associations of marketed drugs” (Nat Commun, 2023).

By AC50 is commonly meant the concentration giving half of the maximal activity seen. Higher therefore signals activity only at high concentration.

Assay [1] addresses T1, Alpha-2A adrenergic receptor (Homo sapiens, UniProt P08913).
T1 sequence (P08913 whole entry): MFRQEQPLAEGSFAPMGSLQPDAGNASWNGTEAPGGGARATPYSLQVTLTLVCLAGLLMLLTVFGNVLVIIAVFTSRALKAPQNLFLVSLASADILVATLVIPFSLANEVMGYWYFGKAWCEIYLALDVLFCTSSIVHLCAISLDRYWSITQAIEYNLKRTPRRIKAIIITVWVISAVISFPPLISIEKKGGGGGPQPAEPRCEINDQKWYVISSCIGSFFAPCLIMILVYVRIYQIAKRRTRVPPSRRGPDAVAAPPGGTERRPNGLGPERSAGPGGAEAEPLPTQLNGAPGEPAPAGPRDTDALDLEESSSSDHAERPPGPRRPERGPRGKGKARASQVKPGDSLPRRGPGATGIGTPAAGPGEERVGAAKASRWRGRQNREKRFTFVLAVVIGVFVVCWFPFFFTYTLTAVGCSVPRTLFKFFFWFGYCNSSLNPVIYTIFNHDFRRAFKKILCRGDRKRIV
Type of assay: functional, cell-based.

In assay [2] the target is Beta-2 adrenergic receptor (Homo sapiens, UniProt P07550). Type of assay: functional, cell-based.
Beta-2 adrenergic receptor, sequence (P07550 whole entry): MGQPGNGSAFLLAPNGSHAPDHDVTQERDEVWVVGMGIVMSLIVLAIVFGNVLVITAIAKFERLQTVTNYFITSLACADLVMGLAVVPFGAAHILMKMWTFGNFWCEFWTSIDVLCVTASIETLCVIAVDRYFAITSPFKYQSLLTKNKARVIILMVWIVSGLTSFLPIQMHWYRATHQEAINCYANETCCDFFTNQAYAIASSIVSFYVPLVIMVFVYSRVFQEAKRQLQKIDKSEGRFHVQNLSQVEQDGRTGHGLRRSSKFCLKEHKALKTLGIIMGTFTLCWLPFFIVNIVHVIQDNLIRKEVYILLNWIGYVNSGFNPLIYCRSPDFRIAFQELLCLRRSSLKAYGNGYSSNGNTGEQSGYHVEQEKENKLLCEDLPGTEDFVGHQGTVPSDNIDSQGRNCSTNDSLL
Assay [3] addresses T2, 5-hydroxytryptamine receptor 1A (Homo sapiens, UniProt P08908).
T2 sequence (P08908 whole entry): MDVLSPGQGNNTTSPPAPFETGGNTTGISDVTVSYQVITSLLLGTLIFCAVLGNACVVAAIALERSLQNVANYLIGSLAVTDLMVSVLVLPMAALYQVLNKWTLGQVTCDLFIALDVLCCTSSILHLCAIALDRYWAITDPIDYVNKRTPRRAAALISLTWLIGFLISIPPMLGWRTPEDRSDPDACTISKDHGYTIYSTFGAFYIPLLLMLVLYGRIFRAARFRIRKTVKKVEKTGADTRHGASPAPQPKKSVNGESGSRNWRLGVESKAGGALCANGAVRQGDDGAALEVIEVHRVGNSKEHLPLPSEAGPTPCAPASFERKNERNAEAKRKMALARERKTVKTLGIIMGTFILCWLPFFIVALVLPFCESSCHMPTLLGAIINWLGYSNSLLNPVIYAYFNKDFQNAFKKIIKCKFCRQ
Format: functional, cell-based.

The target in assay [4] is T3, 5-hydroxytryptamine receptor 3A (Homo sapiens, UniProt P46098).
T3 sequence (P46098 whole entry): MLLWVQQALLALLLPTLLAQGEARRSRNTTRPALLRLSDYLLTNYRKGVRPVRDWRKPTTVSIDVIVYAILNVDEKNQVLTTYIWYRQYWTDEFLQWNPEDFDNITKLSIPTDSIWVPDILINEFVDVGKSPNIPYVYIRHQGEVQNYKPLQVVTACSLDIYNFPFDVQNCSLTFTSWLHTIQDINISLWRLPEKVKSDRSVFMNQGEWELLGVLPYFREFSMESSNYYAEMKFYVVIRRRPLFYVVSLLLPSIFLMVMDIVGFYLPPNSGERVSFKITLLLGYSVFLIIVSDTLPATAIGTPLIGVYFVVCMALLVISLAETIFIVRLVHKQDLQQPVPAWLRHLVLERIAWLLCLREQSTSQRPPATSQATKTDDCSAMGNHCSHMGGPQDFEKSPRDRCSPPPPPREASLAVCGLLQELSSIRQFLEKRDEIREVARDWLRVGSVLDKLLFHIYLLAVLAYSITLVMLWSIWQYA
Format: functional.

A further assay addresses Melanocortin receptor 3 (Homo sapiens, UniProt P41968).
In assay [5] the target is Sodium-dependent dopamine transporter (Homo sapiens, UniProt Q01959).
Sodium-dependent dopamine transporter, sequence (Q01959 whole entry): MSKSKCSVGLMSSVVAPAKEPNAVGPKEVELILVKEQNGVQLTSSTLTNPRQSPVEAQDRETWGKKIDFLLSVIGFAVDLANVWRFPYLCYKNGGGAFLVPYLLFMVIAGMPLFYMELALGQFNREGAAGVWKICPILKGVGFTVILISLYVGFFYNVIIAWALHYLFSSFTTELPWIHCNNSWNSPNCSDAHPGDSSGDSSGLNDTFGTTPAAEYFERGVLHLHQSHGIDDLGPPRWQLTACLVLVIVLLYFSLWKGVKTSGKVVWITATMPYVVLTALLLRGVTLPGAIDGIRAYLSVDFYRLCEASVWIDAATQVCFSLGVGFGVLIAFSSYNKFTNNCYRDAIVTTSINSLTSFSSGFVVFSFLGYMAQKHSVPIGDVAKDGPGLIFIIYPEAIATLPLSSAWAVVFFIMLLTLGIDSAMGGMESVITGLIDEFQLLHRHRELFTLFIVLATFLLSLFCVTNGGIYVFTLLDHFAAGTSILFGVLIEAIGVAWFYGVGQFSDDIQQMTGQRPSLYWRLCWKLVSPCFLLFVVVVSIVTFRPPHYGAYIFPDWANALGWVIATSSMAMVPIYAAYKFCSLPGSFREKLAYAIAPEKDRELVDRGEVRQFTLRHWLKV
Assay [6] deals with Sodium-dependent noradrenaline transporter (Homo sapiens, UniProt P23975).
Sodium-dependent noradrenaline transporter, sequence (P23975 whole entry): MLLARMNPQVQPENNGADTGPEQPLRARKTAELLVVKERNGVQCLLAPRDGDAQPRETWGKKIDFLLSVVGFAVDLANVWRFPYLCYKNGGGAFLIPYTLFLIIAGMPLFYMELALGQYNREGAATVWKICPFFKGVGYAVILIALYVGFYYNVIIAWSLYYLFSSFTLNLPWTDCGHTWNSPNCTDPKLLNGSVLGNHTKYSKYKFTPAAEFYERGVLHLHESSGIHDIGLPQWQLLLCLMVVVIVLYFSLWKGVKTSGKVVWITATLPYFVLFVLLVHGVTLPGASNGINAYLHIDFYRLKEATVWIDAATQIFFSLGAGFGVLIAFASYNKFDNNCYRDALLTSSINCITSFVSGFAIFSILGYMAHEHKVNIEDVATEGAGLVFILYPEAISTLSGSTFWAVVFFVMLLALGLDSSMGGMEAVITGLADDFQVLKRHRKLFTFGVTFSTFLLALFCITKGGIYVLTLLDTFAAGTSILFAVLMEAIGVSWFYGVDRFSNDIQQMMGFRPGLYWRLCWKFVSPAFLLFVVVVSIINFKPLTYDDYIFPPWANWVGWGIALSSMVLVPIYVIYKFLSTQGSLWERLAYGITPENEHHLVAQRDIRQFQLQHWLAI
The target of assay [7] is T4, Alpha-1A adrenergic receptor (Homo sapiens, UniProt P35348).
T4 sequence (P35348 whole entry): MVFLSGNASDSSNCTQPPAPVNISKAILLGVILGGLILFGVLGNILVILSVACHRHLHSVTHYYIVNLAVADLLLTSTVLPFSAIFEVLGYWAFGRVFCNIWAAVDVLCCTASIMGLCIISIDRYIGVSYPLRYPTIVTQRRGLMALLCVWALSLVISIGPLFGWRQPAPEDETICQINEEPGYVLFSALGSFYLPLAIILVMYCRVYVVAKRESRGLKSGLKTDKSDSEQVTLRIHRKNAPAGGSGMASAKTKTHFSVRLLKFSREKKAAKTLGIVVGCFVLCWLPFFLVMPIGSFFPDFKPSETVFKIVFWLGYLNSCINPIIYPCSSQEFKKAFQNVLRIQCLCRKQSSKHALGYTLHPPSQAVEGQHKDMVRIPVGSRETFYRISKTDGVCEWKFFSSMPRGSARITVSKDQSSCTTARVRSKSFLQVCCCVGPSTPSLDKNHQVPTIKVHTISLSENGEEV
Type of assay: functional, cell-based.

The next assay addresses T5, Thromboxane A2 receptor (Homo sapiens, UniProt P21731).
T5 sequence (P21731 whole entry): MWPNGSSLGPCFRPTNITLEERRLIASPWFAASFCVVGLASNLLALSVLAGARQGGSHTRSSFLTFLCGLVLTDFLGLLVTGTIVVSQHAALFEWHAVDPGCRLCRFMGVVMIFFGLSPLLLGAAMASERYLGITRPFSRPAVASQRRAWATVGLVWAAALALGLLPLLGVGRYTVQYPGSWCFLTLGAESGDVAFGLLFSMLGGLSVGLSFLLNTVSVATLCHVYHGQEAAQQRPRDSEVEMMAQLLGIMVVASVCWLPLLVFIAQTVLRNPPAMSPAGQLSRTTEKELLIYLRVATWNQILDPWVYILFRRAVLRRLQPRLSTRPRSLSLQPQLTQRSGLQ

Each structure is given as a SMILES string.
Also: assay procedure not described here.

Melanocortin receptor 3, sequence (P41968 whole entry): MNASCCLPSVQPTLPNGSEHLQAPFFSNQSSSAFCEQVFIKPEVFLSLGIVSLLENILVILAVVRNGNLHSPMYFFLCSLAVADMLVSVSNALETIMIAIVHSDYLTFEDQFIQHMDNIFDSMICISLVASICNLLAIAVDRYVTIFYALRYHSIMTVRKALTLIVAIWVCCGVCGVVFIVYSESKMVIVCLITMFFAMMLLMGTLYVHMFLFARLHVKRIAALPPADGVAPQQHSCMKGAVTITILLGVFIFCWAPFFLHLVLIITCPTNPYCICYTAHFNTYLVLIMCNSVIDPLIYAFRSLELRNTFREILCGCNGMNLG

In the case of `CCOc1cc([C@@H](CS(C)(=O)=O)N2C(=O)c3cccc(NC(C)=O)c3C2=O)ccc1OC`, the AC50 (in assay [1]; in assay [2]; in assay [3]; in [4]; on Melanocortin receptor 3; in assay [5]) was > 30 µM each time. In addition, the half-maximal activity concentration (AC50) in assay [6] and in [7] was > 30 µM in each case.

Turning to `CC(=O)Nc1ccc(CC(=O)O)cc1` [ACTARIT], the AC50 (in assay [1]; in assay [3]; in [4]; on Melanocortin receptor 3; at Thromboxane A2 receptor; in assay [5]) was > 30 µM each time. Besides, the AC50 in [6] and in [7] was > 30 µM each time.

For `CC(C(=O)O)c1ccc2oc(-c3ccc(Cl)cc3)nc2c1` (configuration not stated) [BENOXAPROFEN], the AC50 (in assay [1]; in assay [3]; in assay [4]; on Melanocortin receptor 3; at Thromboxane A2 receptor; in assay [5]) was > 30 µM in each case. Moreover, the figures for the concentration at half-maximal activity (AC50) in assay [6] and in [7] were > 30 µM and 23 µM, respectively.

`CC=CC1=C(C(=O)O)N2C(=O)[C@@H](NC(=O)[C@H](N)c3ccc(O)cc3)[C@H]2SC1` [CEFPROZIL]: the AC50 (in [1]; in assay [3]; in assay [4]; on Melanocortin receptor 3; at Thromboxane A2 receptor; in [5]) was > 30 µM in each case. Moreover, the half-maximal activity concentration (AC50) in assay [6] and in assay [7] was > 30 µM each time.

As to `CC(C)NC(=N)NC(=N)Nc1ccc(Cl)c(Cl)c1` [CHLORPROGUANIL], the concentration at half-maximal activity (AC50) was > 30 µM in [1]; > 30 µM in [2]; > 30 µM in assay [3]; > 30 µM in assay [4]; 12 µM in assay [7].

In the case of `Cc1cc(C2CCCCC2)n(O)c(=O)c1` [CICLOPIROX], the half-maximal activity concentration (AC50) (on Melanocortin receptor 3; in [5]; in [6]; in assay [7]) was > 30 µM in each case.

Take `C[N+](C)(C)CCOP(=O)(O)OP(=O)([O-])OC[C@H]1O[C@@H](n2ccc(N)nc2=O)[C@H](O)[C@@H]1O` [CITICOLINE]: the concentration at half-maximal activity (AC50) in [1], in assay [2], in assay [3], in assay [4] and in [7] was > 30 µM throughout.

For `CNC[C@H](O)c1ccc(O)c(O)c1` [EPINEPHRINE], the concentration at half-maximal activity (AC50) (in [4]; at Melanocortin receptor 3; in assay [5]; in assay [6]) was > 30 µM throughout.

Consider `COc1ccccc1OC1(C)OC(=O)c2ccccc2O1` (configuration not stated) [GUAIMESAL], for which the AC50 (on Melanocortin receptor 3; at Thromboxane A2 receptor; in assay [5]; in assay [6]) was > 30 µM each time.

As to `CCCCCCCN(CC)CCCC(O)c1ccc(NS(C)(=O)=O)cc1` (configuration not stated) [IBUTILIDE], the AC50 (in [1]; in assay [3]; in assay [4]; on Melanocortin receptor 3; on Thromboxane A2 receptor; in [5]) was > 30 µM in each case. The AC50 in [6] and in assay [7] was > 30 µM throughout.

Regarding `CC[C@H](C)C(=O)O[C@H]1C[C@@H](C)C=C2C=C[C@H](C)[C@H](CC[C@@H]3C[C@@H](O)CC(=O)O3)[C@H]21` [LOVASTATIN], the AC50 in [1] is > 10 µM; in assay [2], > 30 µM; in [3] it was > 10 µM; in [4], > 30 µM; at Melanocortin receptor 3, > 30 µM; on Thromboxane A2 receptor, 12 µM. Also, the AC50 in assay [5] and in assay [6] was > 10 µM throughout.

Turning to `CC[C@@H](CO)NC(=O)[C@@H]1C=C2c3cccc4c3c(cn4C)C[C@H]2N(C)C1` [METHYSERGIDE], the concentration at half-maximal activity (AC50) in [1] is > 10 µM; in assay [2], > 30 µM; in assay [3], 0.2 µM; in assay [4], > 30 µM; on Melanocortin receptor 3, > 30 µM; on Thromboxane A2 receptor, 24.5 µM. Besides, the half-maximal activity concentration (AC50) in [5] and in assay [6] was > 30 µM in each case.

Turning to `CNC(=C[N+](=O)[O-])NCCSCc1csc(CN(C)C)n1` [NIZATIDINE], the AC50 in [1] was > 10 µM; in assay [3] it was > 10 µM; in [4], > 30 µM; at Melanocortin receptor 3, > 10 µM; on Thromboxane A2 receptor it was > 10 µM; in assay [5], > 10 µM. In assay [6], the concentration at half-maximal activity (AC50) was > 10 µM.

Consider `CCCc1cc(=O)[nH]c(=S)[nH]1` [PROPYLTHIOURACIL], for which the concentration at half-maximal activity (AC50) in assay [1] is > 10 µM; in [3], > 10 µM; in assay [4], > 30 µM; at Melanocortin receptor 3, > 10 µM; on Thromboxane A2 receptor, > 10 µM; in assay [5] it was > 10 µM. In addition, the concentration at half-maximal activity (AC50) in assay [6] was > 10 µM.

As to `Cn1cc(C(=O)[C@@H]2CCc3nc[nH]c3C2)c2ccccc21` [RAMOSETRON], the AC50 was > 30 µM in assay [1]; > 30 µM in assay [3]; 0.0004 µM in assay [4]; > 30 µM on Melanocortin receptor 3; > 30 µM at Thromboxane A2 receptor; > 30 µM in assay [5]. The AC50 in assay [6] and in [7] was > 30 µM in each case.

As to `CN(CCOc1ccc(CC2SC(=O)NC2=O)cc1)c1ccccn1` (configuration not stated) [ROSIGLITAZONE], the AC50 in [1] was > 30 µM; in assay [3], > 30 µM; in [4], > 30 µM; on Melanocortin receptor 3, 20.8 µM; on Thromboxane A2 receptor, > 30 µM; in assay [5] it was > 30 µM. Besides, the AC50 was > 30 µM in assay [6] and 11 µM in assay [7].

For the compound `S=P(N1CC1)(N1CC1)N1CC1` [THIOTEPA], the AC50 in assay [1] was > 30 µM; in assay [2], > 30 µM; in [3], > 10 µM; in assay [4] it was > 30 µM; on Melanocortin receptor 3, > 30 µM; in [5] it was 27 µM. Further, in assay [7], the activity was half-maximal at 0.044 µM (AC50).

In the case of `COc1cc(C(=O)NS(=O)(=O)c2ccccc2C)ccc1Cc1cn(C)c2ccc(NC(=O)OC3CCCC3)cc12` [ZAFIRLUKAST], the AC50 in [3] was > 10 µM; in assay [4], > 30 µM; on Melanocortin receptor 3 it was > 10 µM; at Thromboxane A2 receptor it was > 10 µM; in assay [5] it was > 10 µM; in [6], > 10 µM. The AC50 in [7] amounted to 5.9 µM.
